The values that follow come from patent US9150574B2, “Enzyme inhibitor compounds” (Proximagen Limited, priority 2011, dated 2015).

Each structure is given as a SMILES string. Counter-ions that a name gives are not always drawn.

In the experiment the target is T1, purified recombinantly expressed human SSAO (Homo sapiens, UniProt Q16853).
T1 construct: made in house
T1 sequence (Q16853 29-763 limits assumed): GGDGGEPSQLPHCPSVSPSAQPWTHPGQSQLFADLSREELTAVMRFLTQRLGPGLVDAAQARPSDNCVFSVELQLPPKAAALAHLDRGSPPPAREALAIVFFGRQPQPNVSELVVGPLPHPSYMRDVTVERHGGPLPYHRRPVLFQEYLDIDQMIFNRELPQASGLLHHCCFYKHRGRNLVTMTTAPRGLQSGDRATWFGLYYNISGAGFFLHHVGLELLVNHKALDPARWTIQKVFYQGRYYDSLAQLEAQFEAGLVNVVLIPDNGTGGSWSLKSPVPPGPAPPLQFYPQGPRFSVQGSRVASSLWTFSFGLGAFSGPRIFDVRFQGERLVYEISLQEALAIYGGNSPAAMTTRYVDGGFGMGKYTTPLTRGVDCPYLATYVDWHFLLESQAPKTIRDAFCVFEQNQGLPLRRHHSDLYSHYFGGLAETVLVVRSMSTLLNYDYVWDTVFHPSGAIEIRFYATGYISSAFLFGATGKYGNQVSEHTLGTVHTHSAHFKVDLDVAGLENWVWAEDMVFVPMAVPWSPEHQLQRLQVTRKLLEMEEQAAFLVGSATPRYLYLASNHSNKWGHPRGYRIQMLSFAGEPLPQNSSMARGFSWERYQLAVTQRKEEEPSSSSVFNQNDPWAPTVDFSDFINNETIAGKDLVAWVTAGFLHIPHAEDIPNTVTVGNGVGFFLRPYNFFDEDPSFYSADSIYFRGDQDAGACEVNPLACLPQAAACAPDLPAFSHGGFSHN
Briefly: SSAO enzyme inhibition assay (benzylamine substrate; hydrogen peroxide/HRP-coupled or 14C aldehyde detection). The class given is biochemical. Conditions: human recombinant SSAO, RT, benzylamine as substrate; read-out: SSAO inhibitory activity IC50. The method, then: All primary assays were performed at RT. with purified recombinantly expressed human SSAO. Enzyme was prepared essentially as described in Ohman et al. (Protein Expression and Purification 46 (2006) 321 331). In addition, secondary- and selectivity assays were performed using SSAO prepared from various tissues or purified rat recombinant SSAO. The enzyme activity was assayed with benzylamine as substrate by measuring either benzaldehyde production, using ^14C-labeled substrate, or by utilizing the production of hydrogen peroxide in a horseradish peroxidase (HRP) coupled reaction. Briefly, test compounds were dissolved in dimethyl sulfoxide (DMSO) to a concentration of 10 mM. Dose-response measurements were assayed by either creating 1:10 serial dilutions in DMSO to produce a 7 point curve or by making 1:3 serial dilutions in DMSO to produce 11 point curves. The top concentrations were adjusted depending on the potency of the compounds and subsequent dilution in reaction buffer yielded a final DMSO concentration ≦2%.
In a horseradish peroxidase (HRP) coupled reaction, hydrogen peroxide oxidation of 10-acetyl-3,7-dihydroxyphenoxazine produced resorufin, which is a highly fluorescent compound (Zhout and Panchuk-Voloshina. Analytical Biochemistry 253 (1997) 169-174; Amplex® Red Hydrogen Peroxide/peroxidase Assay kit, Invitrogen A22188). Enzyme and compounds in 50 mM sodium phosphate, pH 7.4 were set to pre-incubate in flat-bottomed microtiter plates for approximately 15 minutes before initiating the reaction by addition of a mixture of HRP, benzylamine and Amplex reagent. Benzylamine concentration was fixed at a concentration corresponding to the Michaelis constant, determined using standard procedures. Fluorescence intensity was then measured at several time points during 1-2 hours, exciting at 544 nm and reading the emission at 590 nm. For the human SSAO assay final concentrations of the reagents in the assay wells were: SSAO enzyme 1 μg/ml, benzylamine 100 μM, Amplex reagent 20 μM, HRP 0.1 U/mL and varying concentrations of test compound. The inhibition was measured as % decrease of the signal compared to a control without inhibitor (only diluted DMSO). The background signal from a sample containing no SSAO enzyme was subtracted from all data points. Data was fitted to a four parameter logistic model and IC50 values were calculated using the GraphPad Prism 4 or XLfit 4 programs.
SSAO activity was assayed using 14C-labeled benzylamine and analysed by measuring radioactive benzaldehyde. In a white 96-well optiplate (Packard), 20 μL of diluted test compound was pre-incubated at RT. with 20 μL SSAO enzyme for approximately 15 minutes with continuous agitation. All dilutions were made with PBS. The reaction was initiated by adding 20 μL of the benzylamine substrate solution containing [7-14C] Benzylamine hydrochloride (CFA589, GE Healthcare). The plate was incubated for 1 hour as above after which the reaction was stopped by acidification (10 μL 1 M HCl). Then 90 μL Micro Scint-E solution (Perkin-Elmer) was added to each well and the plate was continuously mixed for 15 minutes. Phase separation occurred instantly and activity was read in a Topcount scintillation counter (Perkin-Elmer). In the final reaction well, the human recombinant SSAO concentration was 10 μg/ml. In order to optimize sensitivity, the substrate concentration was decreased as compared to the HRP coupled assay in order to get a higher fraction of radioactive product. In the human SSAO assay, benzylamine concentration was 40 μM (0.2 μCi/mL). Data was analysed as above.
`COC(=O)C1COCCN1c1nn(-c2ccc(Cl)cc2)c2cnccc12` (stereo not drawn) [Example 20, Methyl 4-[1-(4-chlorophenyl)-1H-pyrazolo[3,4-c]pyridin-3-yl]morpholine-3-carboxylate]: the IC50 (in general, the concentration that gives 50% inhibition) fell in the range of 100 to 500 nM.

For `NCCNC(=O)C1CCN(c2nn(-c3ccc(Cl)cc3)c3cnccc23)CC1` [Example 14, N-(2-Aminoethyl)-1-[1-(4-chlorophenyl)-1H-pyrazolo[3,4-c]pyridin-3-yl]piperidine-4-carboxamide dihydrochloride], the IC50 lay in the range of 100 to 500 nM.

As to `Cc1ccc(-n2nc(N3CCOCC3CO)c3ccncc32)cc1` (stereo not drawn) [Example 17, {4-[1-(4-Methylphenyl)-1H-pyrazolo[3,4-c]pyridin-3-yl]morpholin-3-yl}methanol], the IC50 was less than 100 nM.

`NCCNC(=O)C1CCCCN1c1nn(-c2ccc(Cl)cc2)c2cnccc12` (stereo not drawn) [Example 24, N-(2-Aminoethyl)-1-[1-(4-chlorophenyl)-1H-pyrazolo[3,4-c]pyridin-3-yl]piperidine-2-carboxamide dihydrochloride]: the IC50 is less than 100 nM.

`Oc1cncc2c1c(C1CCNCC1)cn2-c1ccc(Cl)cc1` [Example 27, 1-(4-Chlorophenyl)-3-(piperidin-4-yl)-1H-pyrrolo[2,3-c]pyridin-4-ol]: the IC50 is less than 100 nM.

For `OCCC1COCCN1c1nn(-c2ccc(Cl)cc2)c2cnccc12` (stereo not drawn) [Example 22, 2-{4-[1-(4-Chlorophenyl)-1H-pyrazolo[3,4-c]pyridin-3-yl]morpholin-3-yl}ethan-1-ol], the IC50 is less than 100 nM.

In the case of `NCCCOC(=O)N1CCC(c2cn(-c3ccc(Cl)cc3)c3cnccc23)CC1` [Example 2, 3-Aminopropyl 4-[1-(4-chlorophenyl)-1H-pyrrolo[2,3-c]pyridin-3-yl]piperidine-1-carboxylate], the IC50 is less than 100 nM.

For `NCCNC(=O)N1CCC(c2cn(-c3ccc(Cl)cc3)c3cnccc23)CC1` [Example 5, N-(2-Aminoethyl)-4-[1-(4-chlorophenyl)-1H-pyrrolo[2,3-c]pyridin-3-yl]piperidine-1-carboxamide], the IC50 was less than 100 nM.

In the case of `O=C(N1CCOCC1)N1CCC(c2cn(-c3ccc(Cl)cc3)c3cnccc23)CC1` [Example 9, 4-({4-[1-(4-Chlorophenyl)-1H-pyrrolo[2,3-c]pyridin-3-yl]piperidin-1-yl}carbonyl)morpholine], the IC50 fell in the range of 100 to 500 nM.

As to `O=C(O)C1CCN(c2nn(-c3ccc(Cl)cc3)c3cnccc23)CC1` [Example 13, 1-[1-(4-Chlorophenyl)-1H-pyrazolo[3,4-c]pyridin-3-yl]piperidine-4-carboxylic acid hydrochloride], the IC50 fell in the range of 100 to 500 nM.

Take `FCc1ccc(-n2nc(C3CCOCC3)c3ccncc32)cc1` [Example 29, 1-[4-(Fluoromethyl)phenyl]-3-(oxan-4-yl)-1H-pyrazolo[3,4-c]pyridine]: the IC50 fell in the range of 100 to 500 nM.

With `Cc1ccc(-n2cc(N3CCOCC3)c3ccncc32)cc1` [Example 26, 4-[1-(4-Methylphenyl)-1H-pyrrolo[2,3-c]pyridin-3-yl]morpholine], the IC50 lay within 100 to 500 nM.

Regarding `O=C(C1CCN(c2nn(-c3ccc(Cl)cc3)c3cnccc23)CC1)N1CCOCC1` [Example 15, 4-({1-[1-(4-Chlorophenyl)-1H-pyrazolo[3,4-c]pyridin-3-yl]piperidin-4-yl}carbonyl) morpholine], the IC50 lay within 500 to 2500 nM.

Consider `CCOC(=O)C1CCN(c2nn(-c3ccc(C)cc3)c3cnccc23)CC1` [Example 12, Ethyl 1-[1-(4-methylphenyl)-1H-pyrazolo[3,4-c]pyridin-3-yl]piperidine-4-carboxylate], for which the IC50 is 100 to 500 nM.

With `CN(C)CCCNC(=O)N1CCC(c2cn(-c3ccc(Cl)cc3)c3cnccc23)CC1` [Example 7, 4-[1-(4-Chlorophenyl)-1H-pyrrolo[2,3-c]pyridin-3-yl]-N-[3-(dimethylamino)propyl]piperidine-1-carboxamide], the IC50 is less than 100 nM.
